From patent US20240262832A1, “SMALL MOLECULE MODULATORS OF GLUCOCEREBROSIDASE ACTIVITY AND USES THEREOF” (Vanqua Bio, Inc., priority 2021, published 2024) come the findings set out here.

The assay has as its target T1, GCase (Homo sapiens, UniProt P04062).
T1 construct: endogenous in cells; host or cells: HeLa cells
T1 sequence (P04062 40-536): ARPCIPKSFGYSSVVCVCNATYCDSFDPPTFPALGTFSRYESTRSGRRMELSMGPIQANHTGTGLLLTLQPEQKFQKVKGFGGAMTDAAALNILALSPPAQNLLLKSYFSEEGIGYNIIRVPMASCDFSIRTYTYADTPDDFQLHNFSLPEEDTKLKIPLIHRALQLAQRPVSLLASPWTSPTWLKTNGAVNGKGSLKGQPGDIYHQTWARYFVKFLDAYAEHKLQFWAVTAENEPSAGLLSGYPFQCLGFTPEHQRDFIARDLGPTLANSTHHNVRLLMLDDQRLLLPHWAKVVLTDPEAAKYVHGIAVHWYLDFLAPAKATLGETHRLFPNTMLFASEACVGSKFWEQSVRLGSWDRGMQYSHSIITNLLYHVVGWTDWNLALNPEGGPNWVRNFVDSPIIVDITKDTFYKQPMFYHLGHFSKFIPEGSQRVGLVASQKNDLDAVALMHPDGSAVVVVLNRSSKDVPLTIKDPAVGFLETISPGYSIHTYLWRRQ
Description: activation of GCase in a live cell PFB assay in HELA cells. The class given is cell-based.

SMILES strings stand for the structures.

Broadly, the EC50 is the concentration giving half of the maximal effect.

With `O=C(c1ccc2ccn(CC3COC3)c2c1)N1CCC[C@H](CCc2ccccc2C(F)(F)F)C1` [Compound 18, 1-[(oxetan-3-yl)methyl]-6-[(3S)-3-{2-[2-(trifluoromethyl)phenyl]ethyl}piperidine-1-carbonyl]-1H-indole], the EC50 is 10 to 50 µM.
As for `O=C(Cc1cc(Cl)cs1)N1CCCC(COc2ccccc2)C1` (stereo not shown) [Compound 161], the figure is 10 to 50 µM; as for `COc1ccc(OCC2CCN(C(=O)NCCc3nccs3)CC2)cc1` [Compound 480], above 100 µM; as for `CCCCCCC(C)C(=O)N1CCCC(COc2ccccc2)C1` (stereo not shown) [Compound 132], below 10 µM.
Next, `COc1ccc(OCC2CCN(c3nc(C)ncc3Cl)CC2)cc1` [Compound 421]: 10 to 50 µM.
The compound `c1ccc(OC2CCN(c3cnc4ccccc4n3)CC2)cc1` [Compound 414, 2-(4-Phenoxypiperidin-1-yl)quinoxaline] displayed an EC50 of 10 to 50 µM.
As for `O=C(c1ccc2cc[nH]c2c1)N1CCC(Oc2ccc(C(F)(F)F)nc2)CC1` [Compound 314, (1H-Indol-6-yl)(4-((6-(trifluoromethyl)pyridin-3-yl)oxy)piperidin-1-yl)methanone], the figure is 50 to 100 µM; as for `C[C@@H]1CC[C@H](COc2ccnc(C(F)(F)F)c2)CN1c1cnc2cnn(CC(F)F)c2n1` [Compound 278, 1-(2,2-Difluoroethyl)-6-((2R,5S)-2-methyl-5-(((2-(trifluoromethyl)pyridin-4-yl)oxy)methyl)piperidin-1-yl)-1H-pyrazolo[3,4-b]pyrazine], 10 to 50 µM.
As for `Cc1cccnc1OCC1CCN(C(=O)C2(c3ccccc3)CCOCC2)CC1` [Compound 360], the figure is 10 to 50 µM.
As for `CC(C)Sc1ccc(CC(=O)N2CCC(Oc3ncccc3C#N)CC2)cc1` [Compound 369], the figure is 10 to 50 µM; as for `C[C@@H]1CC[C@H](COc2cccc(C(F)(F)F)n2)CN1c1cnc2cnn(CC(F)F)c2n1` [Compound 269, 1-(2,2-Difluoroethyl)-6-((2R,5S)-2-methyl-5-(((6-(trifluoromethyl)pyridin-2-yl)oxy)methyl)piperidin-1-yl)-1H-pyrazolo[3,4-b]pyrazine], above 100 µM.
As for `FC(F)Cn1ncc2ncc(N3C[C@H](COc4cccnc4C(F)(F)F)C[C@@H](OC(F)F)C3)nc21` [Compound 299b, 1-(2,2-Difluoroethyl)-6-((3R,5R)-3-(difluoromethoxy)-5-(((2-(trifluoromethyl)pyridin-3-yl)oxy)methyl)piperidin-1-yl)-1H-pyrazolo[3,4-b]pyrazine], the EC50 was below 10 µM.
As for `O=C(c1cnn(-c2ccccc2F)n1)N1CCCC(COc2ccccc2)C1` (stereo not shown) [Compound 22, (2-(2-Fluorophenyl)-2H-1,2,3-triazol-4-yl)(3-(phenoxymethyl)piperidin-1-yl)methanone], the figure is 10 to 50 µM.
Next, `Cc1cccnc1OCC1CCN(C(=O)Cc2cn(C)c3ccccc23)CC1` [Compound 359]: 10 to 50 µM.
As for `Cc1cccc(-c2ccccc2C(=O)N2CCCC(COc3ccccc3)C2)c1` (stereo not shown) [Compound 187], the EC50 lay in the range of 10 to 50 µM.
As for `COc1ccc(OCC2CCN(C(=O)c3cnc[nH]3)CC2)cc1` [Compound 463], the figure is 50 to 100 µM; as for `O=C(N1CCCC(COc2ccccc2)C1)C12CCC(C(F)F)(CC1)C2` (stereo not shown) [Compound 10], 10 to 50 µM.
Next, `Cc1cccc2cc(C(=O)N3CCC(Oc4ccccc4)CC3)oc12` [Compound 409, 1-(7-Methyl-1-benzofuran-2-carbonyl)-4-phenoxypiperidine]: 10 to 50 µM.
As for `CC(CC1CCCN(c2cnc3cnn(CC(F)F)c3n2)C1)c1cccnc1C(F)(F)F` (stereo not shown) [Compound 108, 1-(2,2-Difluoroethyl)-6-(3-(2-(2-(trifluoromethyl)pyridin-3-yl)propyl)piperidin-1-yl)-1H-pyrazolo[3,4-b]pyrazine], the EC50 was 50 to 100 µM.
Next, `O=C(CCCc1ccccc1)N1CCC(Oc2ccc(C(F)(F)F)cn2)CC1` [Compound 386]: 10 to 50 µM; `O=C(c1cc(=O)c2cc(Cl)ccc2o1)N1CCCC(COc2ccccc2)C1` (stereo not shown) [Compound 8]: 10 to 50 µM; `CC(C)c1cc(C(=O)N2C[C@@H]3[C@@H](COc4cccnc4C(F)(F)F)[C@@H]3C2)[nH]n1` [Compound 110, (1R,5S,6R)-3-[3-(Propan-2-yl)-1H-pyrazole-5-carbonyl]-6-({[2-(trifluoromethyl)pyridin-3-yl]oxy}methyl)-3-azabicyclo[3.1.0]hexane]: 50 to 100 µM.
Next, `O=C(C1CC1)N1CCC(c2cncc(N3CCCC(COc4ccccc4C(F)(F)F)C3)n2)CC1` (stereo not shown) [Compound 113, Cyclopropyl(4-(6-(3-((2-(trifluoromethyl)phenoxy)methyl)piperidin-1-yl)pyrazin-2-yl)piperidin-1-yl)methanone]: below 10 µM.
Next, `C[C@@H]1C[C@H](COc2cccnc2C(F)(F)F)CN(c2cnc3cnn(CC(F)F)c3n2)C1` [Compound 94, 1-(2,2-Difluoroethyl)-6-((3R,5S)-3-methyl-5-(((2-(trifluoromethyl)pyridin-3-yl)oxy)methyl)piperidin-1-yl)-1H-pyrazolo[3,4-b]pyrazine]: below 10 µM; `O=C(c1ccc2cc[nH]c2c1)N1C[C@@H]2[C@@H](COc3cccnc3C(F)(F)F)[C@@H]2C1` [Compound 109, 6-[(1R,5S,6R)-6-({[2-(Trifluoromethyl)pyridin-3-yl]oxy}methyl)-3-azabicyclo[3.1.0]hexane-3-carbonyl]-1H-indole]: 10 to 50 µM; `FC1(COc2cccc(C(F)(F)F)n2)CCCN(c2cncc(-c3nncs3)n2)C1` (stereo not shown) [Compound 65, 2-[3-Fluoro-3-({[6-(trifluoromethyl)pyridin-2-yl]oxy}methyl)piperidin-1-yl]-6-(1,3,4-thiadiazol-2-yl)pyrazine]: below 10 µM.
Compound `CCC(C)(C)C(=O)N1CCC(COc2cccc(C(F)(F)F)n2)CC1` [Compound 350] returned an EC50 of 50 to 100 µM.
As for `O=C(C1C[C@@H]2C[C@@H](C1)CC(F)(F)C2)N1CCCC(COc2ccccc2)C1` (stereo partly shown) [Compound 151], the figure is 10 to 50 µM; as for `O=C(c1ccn(Cc2ccccc2)n1)N1CCCC(COc2ccccc2)C1` (stereo not shown) [Compound 11], 10 to 50 µM.
In the case of `COc1ccc(OCC2CCN(c3cncc(N)n3)CC2)cc1` [Compound 431], the EC50 was in the range of 50 to 100 µM.
Next, `COc1ccc(OCC2CCN(c3nnc(N)s3)CC2)cc1` [Compound 429]: above 100 µM.
